For one data set, the system named is intracellular MRSA. The format is cell-based, Staphylococcus aureus. Conditions: for z-scoreMRSA+ mean: mean of 3 replicates; for z-scoreMRSA+ rep 1 / %GFP+ rep 1: replicate 1; for z-scoreMRSA+ rep 2 / %GFP+ rep 2: replicate 2; for z-scoreMRSA+ rep 3 / %GFP+ rep 3: replicate 3. An outline of the steps: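 HeLa, MRSA-GFP at MOI ~6.8, 1 h infection; gentamicin 30 µg/ml for 15 min; inhibitor plus gentamicin 5 µg/ml overnight, 37°C/5% CO2; triplicate plates; FACS %GFP+ and cell count; hit = z ≤ -2 MRSA+, z ≥ -3 count.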

A further data set has as its system HeLa cells. Description: Compound screen by flow cytometry: HeLa cell count as surrogate readout of cell viability (z-scoreHeLa). The format is cell-based, human. Conditions: for z-scoreHeLa mean: mean of 3 replicates; for z-scoreHeLa rep 1 / cell count rep 1: replicate 1; for z-scoreHeLa rep 2 / cell count rep 2: replicate 2; for z-scoreHeLa rep 3 / cell count rep 3: replicate 3. An outline of the steps:
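HeLa cells were infected with GFP-MRSA (mean MOI 6.8 ± 4.6) for 1 h, and extracellular bacteria were killed with 30 µg/ml gentamicin. Cells were then incubated overnight with kinase inhibitors in 5 µg/ml gentamicin, in triplicate against DMSO controls. Flow-cytometric cell count served as a viability surrogate, expressed as a plate z-score.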
(In flow cytometry, cells or beads pass a laser one at a time.)

The mark [1] stands for this setting: PKIS compound screen, Yes/No call.
The mark [2] stands for this setting: PKIS compound screen, Yes/No call (effect without cell death).
Setting [3] is: PKIS compounds raw data, MRSA-infected HeLa cells.
Where [4] appears, read: PKIS compounds raw data, HeLa cell count.
The mark [5] stands for this setting: Yes/No: effect without cell death.
[6] abbreviates: compound screen, MRSA-infected HeLa cells.
Where [7] appears, read: compound screen, HeLa cell count.
Setting [8] is: PKIS compound screen raw data, MRSA-infected HeLa cells.
Where [9] appears, read: PKIS compound screen, MRSA-infected HeLa cells.
[10] abbreviates: PKIS compound screen, Yes/No call on z-scoreMRSA+.
[11] abbreviates: PKIS compound screen raw data, HeLa cell count.
The mark [12] stands for this setting: PKIS compound screen, HeLa cell count.
[13] abbreviates: PKIS compound screen, Yes/No call on z-scoreHeLa.

Structures are written as SMILES. Like-named read-outs stand apart in the source and are kept apart here.

For `Cc1ccc(C(=O)Nc2ccc(Nc3ccnc4cc(-c5nccs5)ccc34)cc2O)cc1` [GW494702A], the effect result with intracellular MRSA (setting [1]) is given as “No”. Moreover, the hit entry with intracellular MRSA (setting [2]) was “No”. Besides, in the data set with intracellular MRSA (PKIS compound screen), the “z-scoreMRSA+ mean” value is -1.32, the “z-scoreMRSA+ rep 1” value was -1.18, the “z-scoreMRSA+ rep 2” value is given as -1.22 and the “z-scoreMRSA+ rep 3” value is on record as -1.55. Also, in the data set on intracellular MRSA (setting [3]), the “%GFP+ rep 1” value was found to be 21.0%, the “%GFP+ rep 2” value worked out at 19.7% and the “%GFP+ rep 3” value is given as 18.9%. Besides, in the data set with HeLa cells (setting [1]), the cell death entry was “No”. Moreover, in the data set with HeLa cells (PKIS compound screen), the z-scoreHeLa mean is recorded as 0.98, the “z-scoreHeLa rep 1” value amounted to 0.32, the “z-scoreHeLa rep 2” value is on record as 1.13 and the “z-scoreHeLa rep 3” value is on record as 1.50. In the data set with HeLa cells (setting [4]), the “cell count rep 1” value is reported as 6577, the “cell count rep 2” value was determined as 7707 and the “cell count rep 3” value was found to be 7965.

In the case of `COc1ccccc1-c1cc(/C=C2\C(=O)Nc3ncc(Br)cc32)cc(Br)c1O` [GW442130X], in the data set on intracellular MRSA (setting [3]), the “%GFP+ rep 1” value is 14.9%, the “%GFP+ rep 2” value worked out at 16.4% and the “%GFP+ rep 3” value came to 14.1%. Also, the effect result in the data set with intracellular MRSA (Yes/No call from z-scoreMRSA+) is “No”. Also, in the data set on intracellular MRSA (setting [5]), the hit entry was “No”. In the data set on intracellular MRSA (setting [6]), the “z-scoreMRSA+ mean” value turned out to be 0.33, the “z-scoreMRSA+ rep 1” value came to 0.55, the “z-scoreMRSA+ rep 2” value stood at 0.97 and the “z-scoreMRSA+ rep 3” value is -0.53. Moreover, in the data set with HeLa cells (setting [4]), the “cell count rep 1” value turned out to be 3648, the “cell count rep 2” value stood at 4731 and the “cell count rep 3” value is reported as 6669. Besides, in the data set on HeLa cells (Yes/No call from z-scoreHeLa), the cell death result was “No”. Also, in the data set with HeLa cells (setting [7]), the z-scoreHeLa mean is reported as -0.27, the “z-scoreHeLa rep 1” value was -1.02, the “z-scoreHeLa rep 2” value came to 0.35 and the “z-scoreHeLa rep 3” value is on record as -0.14.

Regarding `COc1cc(Nc2nccc(N3CCC(NC(=O)c4cc5ccccc5s4)C3)n2)cc(OC)c1OC` (centres unmarked) [GSK1379760A], in the data set on intracellular MRSA (setting [8]), the “%GFP+ rep 1” value was 16.3%, the “%GFP+ rep 2” value is 17.7% and the “%GFP+ rep 3” value is given as 19.1%. Besides, in the data set on intracellular MRSA (setting [9]), the “z-scoreMRSA+ mean” value is listed as -0.32, the “z-scoreMRSA+ rep 1” value is listed as -0.49, the “z-scoreMRSA+ rep 2” value is -0.25 and the “z-scoreMRSA+ rep 3” value is listed as -0.21. The hit entry in the data set on intracellular MRSA (setting [2]) is “No”. Further, the effect entry in the data set on intracellular MRSA (setting [10]) was “No”. Moreover, in the data set with HeLa cells (setting [11]), the “cell count rep 1” value came to 31010, the “cell count rep 2” value is 36298 and the “cell count rep 3” value was 43524. In the data set with HeLa cells (setting [12]), the z-scoreHeLa mean was found to be 0.80, the “z-scoreHeLa rep 1” value was 1.65, the “z-scoreHeLa rep 2” value worked out at 0.28 and the “z-scoreHeLa rep 3” value came out at 0.48. The cell death result in the data set on HeLa cells (setting [13]) is on record as “No”.

As for `CS(=O)(=O)CCNCc1nc(-c2ccc3ncnc(Nc4ccc(OCc5ccccc5)c(Cl)c4)c3c2)cs1` [GW582764A], in the data set on intracellular MRSA (setting [8]), the “%GFP+ rep 1” value worked out at 15.6%, the “%GFP+ rep 2” value stood at 19.2% and the “%GFP+ rep 3” value is given as 19.4%. Further, the effect result in the data set on intracellular MRSA (Yes/No call from z-scoreMRSA+) is given as “No”. In addition, the hit entry in the data set on intracellular MRSA (setting [5]) is on record as “No”. Moreover, in the data set on intracellular MRSA (setting [6]), the “z-scoreMRSA+ mean” value is reported as -1.31, the “z-scoreMRSA+ rep 1” value is -2.25, the “z-scoreMRSA+ rep 2” value is on record as -0.83 and the “z-scoreMRSA+ rep 3” value is reported as -0.84. Further, in the data set with HeLa cells (setting [11]), the “cell count rep 1” value is given as 3605, the “cell count rep 2” value amounted to 3519 and the “cell count rep 3” value stood at 4776. Besides, the cell death entry with HeLa cells (Yes/No call from z-scoreHeLa) is on record as “No”. Also, in the data set with HeLa cells (setting [7]), the z-scoreHeLa mean is recorded as -0.48, the “z-scoreHeLa rep 1” value is -0.54, the “z-scoreHeLa rep 2” value was -0.60 and the “z-scoreHeLa rep 3” value is -0.29.

On to `CN(c1ccc2c(c1)nc(NCc1ccc(F)cc1)n2C)c1ccnc(Nc2ccc(CS(C)(=O)=O)cc2)n1` [GW813244A], for which, in the data set with intracellular MRSA (setting [8]), the “%GFP+ rep 1” value was found to be 19.9%, the “%GFP+ rep 2” value is given as 20.6% and the “%GFP+ rep 3” value stood at 22.3%. For the same compound, in the data set with intracellular MRSA (setting [9]), the “z-scoreMRSA+ mean” value stood at 0.68, the “z-scoreMRSA+ rep 1” value stood at 0.65, the “z-scoreMRSA+ rep 2” value worked out at 0.62 and the “z-scoreMRSA+ rep 3” value came to 0.76. Besides, the hit result in the data set with intracellular MRSA (setting [2]) is “No”. The effect result in the data set on intracellular MRSA (setting [10]) is on record as “No”. Besides, in the data set on HeLa cells (setting [11]), the “cell count rep 1” value amounted to 29228, the “cell count rep 2” value is reported as 26803 and the “cell count rep 3” value came out at 36349. Also, in the data set with HeLa cells (setting [12]), the z-scoreHeLa mean is listed as -0.26, the “z-scoreHeLa rep 1” value came to 1.38, the “z-scoreHeLa rep 2” value is on record as -1.49 and the “z-scoreHeLa rep 3” value is -0.67. For the same compound, the cell death result in the data set on HeLa cells (setting [13]) is on record as “No”.

With `COc1cc(Nc2nccc(N3CCC(NC(=O)C(C)c4ccc(Cl)cc4)C3)n2)cc(OC)c1OC` (centres unmarked) [GSK1379757A], in the data set on intracellular MRSA (setting [8]), the “%GFP+ rep 1” value came out at 24.2%, the “%GFP+ rep 2” value is recorded as 23.0% and the “%GFP+ rep 3” value stood at 24.9%. Moreover, in the data set with intracellular MRSA (setting [9]), the “z-scoreMRSA+ mean” value is 1.14, the “z-scoreMRSA+ rep 1” value amounted to 1.45, the “z-scoreMRSA+ rep 2” value is 0.98 and the “z-scoreMRSA+ rep 3” value amounted to 1.00. Besides, the effect result in the data set with intracellular MRSA (setting [1]) is listed as “No”. The hit entry with intracellular MRSA (setting [2]) is on record as “No”. Further, the effect entry in the data set on intracellular MRSA (setting [10]) is on record as “No”. Moreover, in the data set on intracellular MRSA (PKIS compound screen), the “z-scoreMRSA+ mean” value was 0.73, the “z-scoreMRSA+ rep 1” value came to 0.77, the “z-scoreMRSA+ rep 2” value amounted to 0.76 and the “z-scoreMRSA+ rep 3” value stood at 0.65. In the data set with intracellular MRSA (setting [3]), the “%GFP+ rep 1” value is 31.0%, the “%GFP+ rep 2” value is 30.0% and the “%GFP+ rep 3” value is on record as 30.8%. In the data set on HeLa cells (setting [11]), the “cell count rep 1” value was 34106, the “cell count rep 2” value was 27085 and the “cell count rep 3” value was 22729. Also, in the data set with HeLa cells (setting [12]), the z-scoreHeLa mean was 0.57, the “z-scoreHeLa rep 1” value was 0.66, the “z-scoreHeLa rep 2” value was 0.31 and the “z-scoreHeLa rep 3” value worked out at 0.74. The cell death entry in the data set with HeLa cells (setting [1]) is recorded as “No”. Besides, the cell death entry with HeLa cells (setting [13]) is listed as “No”. In the data set with HeLa cells (PKIS compound screen), the z-scoreHeLa mean is on record as 0.21, the “z-scoreHeLa rep 1” value is listed as 0.06, the “z-scoreHeLa rep 2” value is 0.29 and the “z-scoreHeLa rep 3” value turned out to be 0.29. Also, in the data set with HeLa cells (setting [4]), the “cell count rep 1” value stood at 6143, the “cell count rep 2” value was 6440 and the “cell count rep 3” value worked out at 6051.

On to `CCS(=O)(=O)c1ccc(OC)c(Nc2nccc(N(C)c3ccc4c(C)n[nH]c4c3)n2)c1` [GW654652C], for which, in the data set on intracellular MRSA (setting [8]), the “%GFP+ rep 1” value is reported as 13.7%, the “%GFP+ rep 2” value amounted to 14.6% and the “%GFP+ rep 3” value stood at 13.9%. In the data set on intracellular MRSA (setting [9]), the “z-scoreMRSA+ mean” value is recorded as -1.43, the “z-scoreMRSA+ rep 1” value is reported as -1.32, the “z-scoreMRSA+ rep 2” value was -1.18 and the “z-scoreMRSA+ rep 3” value is recorded as -1.79. The hit entry in the data set on intracellular MRSA (setting [2]) is reported as “No”. Besides, the effect entry in the data set with intracellular MRSA (setting [10]) was “No”. In addition, in the data set on HeLa cells (setting [11]), the “cell count rep 1” value is 21654, the “cell count rep 2” value worked out at 25320 and the “cell count rep 3” value turned out to be 35112. In addition, in the data set on HeLa cells (setting [12]), the z-scoreHeLa mean was -0.80, the “z-scoreHeLa rep 1” value turned out to be 0.23, the “z-scoreHeLa rep 2” value is recorded as -1.77 and the “z-scoreHeLa rep 3” value is listed as -0.86. Besides, the cell death result in the data set on HeLa cells (setting [13]) is reported as “No”.

Regarding `COc1cccc(CC(=O)N2CCc3cc(-c4cn(C)c5ncnc(N)c45)ccc32)c1` [GSK2608899A], in the data set on intracellular MRSA (setting [8]), the “%GFP+ rep 1” value amounted to 26.6%, the “%GFP+ rep 2” value came to 25.5% and the “%GFP+ rep 3” value is 23.7%. In the data set with intracellular MRSA (Yes/No call from z-scoreMRSA+), the effect result was “No”. Further, the hit entry in the data set with intracellular MRSA (setting [5]) is “No”. Moreover, in the data set on intracellular MRSA (setting [6]), the “z-scoreMRSA+ mean” value amounted to 0.49, the “z-scoreMRSA+ rep 1” value amounted to 0.31, the “z-scoreMRSA+ rep 2” value is listed as 0.70 and the “z-scoreMRSA+ rep 3” value was determined as 0.45. Moreover, in the data set on HeLa cells (setting [11]), the “cell count rep 1” value was found to be 3096, the “cell count rep 2” value is reported as 2695 and the “cell count rep 3” value stood at 3225. Also, the cell death result with HeLa cells (Yes/No call from z-scoreHeLa) is given as “No”. In the data set with HeLa cells (setting [7]), the z-scoreHeLa mean is given as -1.14, the “z-scoreHeLa rep 1” value is given as -0.91, the “z-scoreHeLa rep 2” value is listed as -1.24 and the “z-scoreHeLa rep 3” value is recorded as -1.27.
